Key:
[1] = tested on: Aβtotal; test: In vivo efficacy: brain soluble Aβtotal in non-transgenic rodents (ELISA); conditions: Mus musculus, dose 30 mg/kg oral dosing, brain soluble fraction, animals sacrificed after 4 h, untreated animals (Ctrl) set at 100, read-out: Aβtotal (% vs Ctrl)_Mean
Text: (§1) To determine whether acute administration of an Aβ42 lowering agent would reduce Aβ42 levels in vivo, non-transgenic rodents, e.g. mice or rats were used. Animals treated with the Aβ42 lowering agent were examined and compared to those untreated or treated with vehicle and brain levels of soluble Aβ42 and total Aβ were quantitated by standard techniques, for example, using ELISA. Treatment periods varied from hours (h) to days and were adjusted based on the results of the Aβ42 lowering once a time course of onset of effect could be established.
(§2) A typical protocol for measuring Aβ42 lowering in vivo is shown but it is only one of many variations that could be used to optimize the levels of detectable Aβ. For example, Aβ42 lowering compounds were formulated in 20% of Captisol® (a sulfobutyl ether of β-cyclodextrin) in water or 20% hydroxypropyl β cyclodextrin. The Aβ42 lowering agents were administered as a single oral dose or by any acceptable route of administration to overnight fasted animals. After 4 h, the animals were sacrificed and Aβ42 levels were analysed.
(§3) Blood was collected by decapitation and exsanguinations in EDTA-treated collection tubes. Blood was centrifuged at 1900 g for 10 minutes (min) at 4° C. and the plasma recovered and flash frozen for later analysis. The brain was removed from the cranium and hindbrain. The cerebellum was removed and the left and right hemisphere were separated. The left hemisphere was stored at −18° C. for quantitative analysis of test compound levels. The right hemisphere was rinsed with phosphate-buffered saline (PBS) buffer and immediately frozen on dry ice and stored at −80° C. until homogenization for biochemical assays.
(§4) Mouse brains from non-transgenic animals were resuspended in 8 volumes of 0.4% DEA (diethylamine)/50 mM NaCl containing protease inhibitors (Roche-11873580001 or 04693159001) per gram of tissue, e.g. for 0.158 g brain, add 1.264 ml of 0.4% DEA. All samples were homogenized in the FastPrep-24 system (MP Biomedicals) using lysing matrix D (MPBio #6913-100) at 6 m/s for 20 seconds. Homogenates were centrifuged at 221.300×g for 50 min. The resulting high speed supernatants were then transferred to fresh eppendorf tubes. Nine parts of supernatant were neutralized with 1 part 0.5 M Tris-HCl pH 6.8 and used to quantify Aβtotal and Aβ42.
(§5) To quantify the amount of Aβtotal and Aβ42 in the soluble fraction of the brain homogenates, Enzyme-Linked-Immunosorbent-Assays were used. Briefly, the standards (a dilution of synthetic Aβ1-40 and Aβ1-42, Bachem) were prepared in 1.5 ml Eppendorf tube in Ultraculture, with final concentrations ranging from 10000 to 0.3 pg/ml. The samples and standards were co-incubated with HRPO-labelled N-terminal antibody for Aβ42 detection and with the biotinylated mid-domain antibody 4G8 for Aβtotal detection. 50 μl of conjugate/sample or conjugate/standards mixtures were then added to the antibody-coated plate (the capture antibodies selectively recognize the C-terminal end of Aβ42, antibody JRF/cAβ42/26, for Aβ42 detection and the N-terminus of Aβ, antibody JRF/rAβ/2, for Aβtotal detection). The plate was allowed to incubate overnight at 4° C. in order to allow formation of the antibody-amyloid complex. Following this incubation and subsequent wash steps the ELISA for Aβ42 quantification was finished by addition of Quanta Blu fluorogenic peroxidase substrate according to the manufacturer's instructions (Pierce Corp., Rockford, Ill.). A reading was performed after 10 to 15 min (excitation 320 nm/emission 420 nm).
For Aβtotal detection, a Streptavidine-Peroxidase-Conjugate was added, followed 60 min later by an additional wash step and addition of Quanta Blu fluorogenic peroxidase substrate according to the manufacturer's instructions (Pierce Corp., Rockford, Ill.). A reading was performed after 10 to 15 min (excitation 320 nm/emission 420 nm). […]

[2] = tested on: Aβ38; test: In vivo efficacy: brain soluble Aβ38 in non-transgenic rodents (ELISA); conditions: Mus musculus, dose 30 mg/kg oral dosing, brain soluble fraction, animals sacrificed after 4 h, untreated animals (Ctrl) set at 100, read-out: Aβ38 (% vs Ctrl)_Mean
Text: as §1, with “Aβ38 increasing agents” for “Aβ42 lowering agent”, “increase Aβ38” for “reduce Aβ42”, “Aβ38” for “Aβ42”, “Aβ38 increase” for “Aβ42 lowering”
as §2, with “measuring Aβ38 increase” for “measuring Aβ42 lowering”, “example, Aβ38 increasing agents” for “example, Aβ42 lowering compounds”, “hydroxypropyl βcyclodextrin.” for “hydroxypropyl β cyclodextrin.”, “The Aβ38 increasing” for “The Aβ42 lowering”, “and Aβ38” for “and Aβ42”
as §3
as §4, with “Aβ total” for “Aβtotal”, “Aβ38.” for “Aβ42.”
as §5, with “Aβ38” for “Aβ42”, “Aβ1-38, ANASPEC)” for “Aβ1-42, Bachem)”, “Aβ38,” for “Aβ42,”, “J&JPRD/Aβ38/5,” for “JRF/cAβ42/26,”
In this model a Aβ38 increase compared to untreated animals would be advantageous, in particular a Aβ38 increase with at least 10%, more in particular a Aβ38 increase with at least 20%.
The results are shown in Table 4 (dose 30 mg/kg oral dosing) (value for untreated animals as control (Ctrl) was set at 100): […]

Structure (SMILES)	response vs control in vivo at 30 mg/kg [1] [%]	response vs control in vivo at 30 mg/kg [2] [%]
Cc1cn(-c2ccc3n(c2=O)CCN(C(C)c2cccc(Cl)c2Cl)C3=O)cn1 (single isomer, unassigned) [10a]	118	85
CCC1Cn2c(ccc(-n3cnc(C)c3)c2=O)C(=O)N1Cc1cc(C(F)(F)F)cc(C(F)(F)F)c1.Cl (stereo not drawn) [compound 1]	89	103
Cc1cn(-c2ccc3n(c2=O)C[C@@H](C)N(Cc2ccc(Cl)c(Cl)c2)C3=O)cn1 [compound 2]	100	129
Cc1cn(-c2ccc3n(c2=O)CC(C)N(Cc2cc(C(F)(F)F)cc(C(F)(F)F)c2)C3=O)cn1 (stereo not drawn) [compound 3]	98	137
Cc1cn(-c2ccc3n(c2=O)CCN(Cc2cccc(-c4ccccc4)c2)C3=O)cn1 [compound 5]	87	110
Cc1cn(-c2ccc3n(c2=O)CC(C)N(Cc2cc(OCC4CC4)cc(C(F)(F)F)c2)C3=O)cn1.Cl (stereo not drawn) [compound 6]	102	129
CCc1cn(-c2ccc3n(c2=O)CC(C)N(Cc2cc(C(F)(F)F)cc(C(F)(F)F)c2)C3=O)cn1.Cl (stereo not drawn) [compound 7]	94	80
Cc1cn(-c2ccc3n(c2=O)CCN(Cc2ccccc2C)C3=O)cn1 [compound 22]	92	105
Cc1cn(-c2ccc3n(c2=O)C[C@@H](C)N(Cc2cccc(C(C)(C)C)c2)C3=O)cn1 [compound 23]	122	132
Cc1cn(-c2ccc3n(c2=O)C[C@@H](C)N(Cc2ccc(C(F)(F)F)c(C(F)(F)F)c2)C3=O)cn1 [compound 46]	87	62
Cc1cn(-c2ccc3n(c2=O)C[C@@H](C)N(CCc2cc(C(F)(F)F)cc(C(F)(F)F)c2)C3=O)cn1 [compound 50]	91	110
Cc1cc(CN2C(=O)c3ccc(-n4cnc(C)c4)c(=O)n3C[C@H]2C)cc(C(F)(F)F)c1 [compound 59]	126	126
Cc1cn(-c2ccc3n(c2=O)C[C@@H](C)N(Cc2ccc(Cl)c(C(F)(F)F)c2)C3=O)cn1 [compound 62]	98	160
Cc1cn(-c2ccc3n(c2=O)C[C@@H](C)N(Cc2cc(Cl)cc(C(F)(F)F)c2)C3=O)cn1 [compound 63]	124	133
Cc1cn(-c2ccc3n(c2=O)CCN(Cc2ccc(Cl)c(C(F)(F)F)c2)C3=O)cn1 [compound 65]	114	132
Cc1cn(-c2ccc3n(c2=O)C[C@@H](C)N(Cc2cc(N4CCC(C)CC4)ccc2Cl)C3=O)cn1 [compound 80]	119	118
Cc1cn(-c2ccc3n(c2=O)C[C@@H](C)N(Cc2cc(N4CCCC4)ccc2Cl)C3=O)cn1 [compound 82]	125	120
Cc1cn(-c2ccc3n(c2=O)CCN(Cc2ccc(C)c(N4CCCCC4)c2)C3=O)cn1 [compound 99]	113	92
